Patent US9126999B2, “Tetrahydropyrazolopyrimidine compounds” (EISAI R&D MANAGEMENT CO., LTD., priority 2012, dated 2015)

Test system: BXSB-Yaa mice
Test: BXSB-Yaa strain lupus disease model
Type: in vivo, mouse
Settings: for proteinuria: UACR; for Grade 3/4 nephritis onset: kidney histopathology
Experimental: Figure Legend: Twelve week old BXSB-Yaa mice were randomized into groups with equivalent median anti-dsDNA titers and treated once-a-day orally with Vehicle (Veh; 0.5% methyl-cellulose) alone or 300 mg/kg ER-892887 for 14 weeks total. (A) All mice were sacrificed at 26 weeks of age and final anti-dsDNA, anti-Sm/nRNP, and anti-RiboP titers were evaluated by ELISA as compared to titers observed in 6 wk old pre-diseased mice. (B) Approximately one week prior to sacrifice (25 weeks of age, 13 weeks of treatment), mice were housed 1-2 per cage in metabolic cages for 18 hours to collect urine, and the Urinary Albumin Creatinine Ratio (UACR, proteinuria) was determined for each animal as an indirect measure of kidney function. (C) At the time of sacrifice, kidneys were collected from individual mice, fixed in 10% formalin for 24 hours, embedded in paraffin, and H&E stained sections were generated for histopathology assessment in a blinded fashion. (D) Summary of mortality observed in the SLE-8 study. Statistical significance was determined by Mann-Whitney test for (A).
Figure Legend: Nine week old male BXSB-Yaa mice were treated once-a-day orally with Vehicle (Veh; 0.5% methyl-cellulose) alone or 100 mg/kg or 300 mg/kg ER-885454 for 15 weeks total. All mice were sacrificed at 24 weeks of age and final anti-dsDNA (A) and anti-Sm/RNP (B) titers were evaluated by ELISA. (C) Approximately one week prior to sacrifice, mice were housed 1-2 per cage in metabolic cages for 18 hours to collect urine, and the Urinary Albumin Creatinine Ratio (UACR, proteinuria) was determined for each animal as an indirect measure of kidney function. (D) At the time of sacrifice, kidneys were collected from individual mice, fixed in 10% formalin for 24 hours, embedded in paraffin, and H&E stained sections were generated for histopathology assessment in a blinded fashion. Statistical significance was determined by Mann-Whitney test for (A), (B), and (C) above.
Figure Legend: Seventeen week old BXSB-Yaa mice were randomized into two groups with equivalent median anti-dsDNA titers and treated once-a-day orally with Vehicle (Veh; 0.5% methyl-cellulose) alone or 300 mg/kg ER-885454 for 13 weeks total. All mice were sacrificed at 30 weeks of age and final anti-dsDNA (A) and anti-Sm/RNP (B) titers were evaluated by ELISA as compared to titers observed in 7 wk old pre-diseased mice. (C) Approximately one week prior to sacrifice, mice were housed 1-2 per cage in metabolic cages for 18 hours to collect urine, and the Urinary Albumin Creatinine Ratio (UACR, proteinuria) was determined for each animal as an indirect measure of kidney function. (D) At the time of sacrifice, kidneys were collected from individual mice, fixed in 10% formalin for 24 hours, embedded in paraffin, and H&E stained sections were generated for histopathology assessment in a blinded fashion. Statistical significance was determined by Mann-Whitney test for (A), (B), and (C) above.
Male BXSB-Yaa and female NZBWF1/J mice were purchased from Jackson Labs (Bar Harbor, Me.), both of which manifest with spontaneous lupus disease. Female DBA/1 mice were purchased from Harlan Laboratories (Indianapolis, Ind.) and at the indicated ages given an intraperitoneal injection of 0.5 ml pristane (2,6,10,14-Tetramethylpentadecane; Sigma, St. Louis, Mo.) to chemically induce lupus disease or of 0.5 ml PBS to generate age-matched, non-diseased control mice. Mice were dosed daily by oral administration of compound or drug in 0.5% methylcellulose, for the time period indicated.
Anti-dsDNA, -Sm/nRNP, -RiboP, and Histone titers were evaluated by standard ELISA approach. Briefly, 96-well EIA/RIA ELISA plates (Corning) were coated with 100 ul of diluted antigen in PBS for 90 minutes at room temperature as follows (final concentrations indicated): 10 U/ml Sm/nRNP complex (Immunovision), 10 ug/ml calf thymus dsDNA (Sigma), 5 U/ml RiboP (Immunovision), and 5 ug/ml Histone (Immunovision). […]

Row | Compound | proteinuria | Grade 3/4 nephritis onset | anti-Sm/nRNP titers (once-a-day oral) | anti-dsDNA titers (once-a-day oral)
1 | COc1ccc([C@@H]2C[C@H](C(F)(F)F)n3nc(-c4ccncc4)cc3N2)cc1OC [ER-885454] | significantly reduced proteinuria | complete prevention | significantly reduced | significantly reduced
2 | COc1ccc([C@@H]2C[C@H](C(F)(F)F)n3nc(-c4ccc(C(=O)N5CCNCC5)cc4)cc3N2)cc1OC [ER-892887, (4-((5S,7R)-5-(3,4-dimethoxyphenyl)-7-(trifluoromethyl)-4,5,6,7-tetrahydropyrazolo[1,5-a]pyrimidin-2-yl)phenyl)(piperazin-1-yl)methanone] | trend towards reduced proteinuria | complete prevention | – | significantly reduced
